Laboratory results: ChEMBL document CHEMBL1201862, “PubChem BioAssay data set” (2004)
Calls of active or inactive are those of the source. Cut-off read from the data, not from the text of the source, for most assays here: actives have a measured IC50 and inactives only a lower limit.

Legend:
Vero [1] = assay: Vero 76 cell viability after compound exposure – Vero 76 cells, synthesized analogs, cytotoxicity control for West Nile virus antiviral project, SAR follow-up (AID 2414); format: functional; conditions: Chlorocebus sabaeus
Vero [2] = assay: Vero cell viability after compound exposure – synthesized analogs, set II, cytotoxicity control for West Nile virus antiviral project, SAR follow-up (AID 2402); format: functional; conditions: Chlorocebus sabaeus
Vero [3] = assay: host cell viability loss, Vero E6 – synthesized analogs, cytotoxicity control for West Nile virus antiviral project, SAR follow-up (AID 2244); format: functional; conditions: Chlorocebus sabaeus
[4] = A Cell Based Assay for the Identification of Probe candidate Compounds with Anti- Venezuelan Equine Encephalitis virus. [Related pubchem assays: 2409, 2419, 1621, 2238, 2405, 2024, 2065, 2402, 2414, 1635, 1650, 2244 ]; format: functional
Vero [5] = assay: antiviral protection of cells from WNV – synthesized analogs, SAR follow-up (AID 2238); format: functional, cell-based; conditions: Chlorocebus sabaeus
Vero [6] = assay: antiviral activity against WNV, CPE read-out – cell-based (AID 2419); format: functional; conditions: Chlorocebus sabaeus
[7] = Trypanosoma cruzi growth suppression in host cells – NIH3T3 host cells, beta-gal luminescence, confirmation (AID 2044); format: functional, cell-based;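 note: intracellular parasites grown in NIH/3T3 mouse fibroblasts as host cells; luminescent beta-galactosidase reporter signal from transgenic T. cruzi replicating inside host cells; inhibitors lower the luminescence signal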
[8] = NIH3T3 cell viability loss – ATP luminescence, mouse fibroblasts, counter-screen, dose response (AID 2010); format: functional, cell-based;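 note: cells exposed to compound for about 90 hours before reading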
[9] = NIH/3T3 cell viability loss – mouse embryonic fibroblasts, dry powder, set 2, cytotoxicity control, dose response (AID 493247); format: functional, cell-based; conditions: Fibroblast
[10] = target: Glyceraldehyde-3-phosphate dehydrogenase (Homo sapiens, UniProt P04406)
[11] = target: Alkaline phosphatase, placental type (Homo sapiens, UniProt P05187); assay: human placental alkaline phosphatase inhibition – biochemical, luminescence, confirmation (AID 1512); format: functional
[12] = target: T1, Alkaline phosphatase, tissue-nonspecific isozyme (Homo sapiens, UniProt P05186); assay: potency against alkaline phosphatase TNAP – biochemical, luminescent, dose response, SAR follow-up (AID 1056)
T1 sequence (P05186 whole entry): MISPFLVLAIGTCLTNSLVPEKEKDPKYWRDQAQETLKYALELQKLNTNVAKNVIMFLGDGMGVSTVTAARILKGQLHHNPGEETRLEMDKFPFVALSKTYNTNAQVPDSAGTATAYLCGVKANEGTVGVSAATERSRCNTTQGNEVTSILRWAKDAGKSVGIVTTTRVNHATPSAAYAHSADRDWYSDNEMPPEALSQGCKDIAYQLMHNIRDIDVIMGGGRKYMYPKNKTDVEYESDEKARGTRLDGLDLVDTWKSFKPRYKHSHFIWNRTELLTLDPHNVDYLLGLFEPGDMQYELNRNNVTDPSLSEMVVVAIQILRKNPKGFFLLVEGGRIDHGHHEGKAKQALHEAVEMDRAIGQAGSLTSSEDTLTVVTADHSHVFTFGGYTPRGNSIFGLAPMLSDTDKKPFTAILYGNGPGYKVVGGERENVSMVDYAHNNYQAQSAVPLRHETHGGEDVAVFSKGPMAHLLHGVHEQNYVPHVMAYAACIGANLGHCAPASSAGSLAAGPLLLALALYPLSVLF

[13] = target: T2, Dual specificity protein phosphatase 3 (Homo sapiens, UniProt P51452); assay: SAR VHR1 absorbance Assay for In Vitro dose response studies. [Related pubchem assays (depositor defined):AID1654, AID1661, AID1878, AID1992, AID2004]
[14] = target: T2, Dual specificity protein phosphatase 3; assay: SAR VHR1 Fluorescent Assay for In Vitro dose response studies. [Related pubchem assays (depositor defined):AID1654, AID1661, AID1878, AID1992, AID2004, AID2070, AID2085]; format: functional
[15] = target: T3, Tyrosine-protein phosphatase non-receptor type 7 (Homo sapiens, UniProt P35236); assay: redox-active compounds inhibiting HePTP phosphatase – biochemical, fluorescence, mechanism study (AID 2068); format: functional
T3 sequence (P35236 whole entry): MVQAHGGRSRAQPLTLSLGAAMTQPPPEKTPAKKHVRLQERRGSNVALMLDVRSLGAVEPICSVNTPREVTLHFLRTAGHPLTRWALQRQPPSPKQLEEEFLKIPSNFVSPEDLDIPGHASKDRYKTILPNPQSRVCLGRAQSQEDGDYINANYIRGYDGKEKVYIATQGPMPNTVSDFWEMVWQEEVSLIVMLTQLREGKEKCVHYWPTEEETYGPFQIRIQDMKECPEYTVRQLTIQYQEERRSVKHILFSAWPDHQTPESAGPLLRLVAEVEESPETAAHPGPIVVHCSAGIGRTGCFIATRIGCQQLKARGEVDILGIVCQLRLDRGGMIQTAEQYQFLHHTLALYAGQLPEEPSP

[16] = target: T4, Dual specificity protein phosphatase 6 (Rattus norvegicus, UniProt Q64346); assay: SAR analysis of inhibitors of MKP-3 - Set 2. [Related pubchem assays (depositor defined):AID1055, AID1661, AID425, AID553, AID566]; format: functional
T4 sequence (Q64346 whole entry): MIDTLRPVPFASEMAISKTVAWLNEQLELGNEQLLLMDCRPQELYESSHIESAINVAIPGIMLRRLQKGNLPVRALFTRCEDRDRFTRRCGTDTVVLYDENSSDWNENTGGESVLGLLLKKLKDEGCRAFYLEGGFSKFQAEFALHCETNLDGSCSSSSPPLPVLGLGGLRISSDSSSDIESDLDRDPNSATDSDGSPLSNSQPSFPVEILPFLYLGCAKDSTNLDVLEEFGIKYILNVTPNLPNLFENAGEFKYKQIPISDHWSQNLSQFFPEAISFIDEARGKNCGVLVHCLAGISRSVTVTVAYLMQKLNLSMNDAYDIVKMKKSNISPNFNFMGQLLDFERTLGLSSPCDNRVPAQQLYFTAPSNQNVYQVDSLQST

[17] = target: T3, Tyrosine-protein phosphatase non-receptor type 7; assay: inhibition of hematopoietic tyrosine phosphatase HePTP – biochemical, set 2, SAR follow-up (AID 449736); format: functional
[18] = target: T3, Tyrosine-protein phosphatase non-receptor type 7; assay: SAR analysis of chemical inhibitors of HePTP using a Fluorescent assay - Set 2. [Related pubchem assays (depositor defined):AID1059, AID1077, AID1661, AID2085, AID521]; format: functional
[19] = target: T2, Dual specificity protein phosphatase 3; assay: SAR VHR1 Fluorescent Assay for In Vitro dose response studies Set 2. [Related pubchem assays (depositor defined):AID1654, AID1661, AID1878]; format: functional
[20] = target: T4, Dual specificity protein phosphatase 6; format: functional
Coagulation factor XII = Coagulation factor XII (Homo sapiens, UniProt P00748); assay: activated coagulation factor XII inhibitor potency, concentration-effect curve, cell-free (AID 716); format: functional
[21] = target: G-protein coupled receptor 55 (Homo sapiens, UniProt Q9Y2T6); assay: selective activators of receptor GPR55 – imaging, U2OS cells, beta-arrestin-GFP redistribution, primary screen (AID 1961); format: functional
[22] = target: Tyrosine-protein phosphatase non-receptor type 12 (Homo sapiens, UniProt Q05209); assay: SAR Selectivity Analysis of small molecule inhibitors of PEST using pCAP in a fluorescence assay. [Related pubchem assays (depositor defined):AID1779, AID1784, AID2135]; format: functional
[23] = target: T5, Tyrosine-protein phosphatase non-receptor type 22 (Homo sapiens, UniProt Q9Y2R2); assay: SAR LYP1 Fluorescent Assay using OMFP substrate for In Vitro dose response studies - Set 3. [Related pubchem assays (depositor defined):AID1779, AID1784, AID2140, AID2686]; format: functional
[24] = target: T5, Tyrosine-protein phosphatase non-receptor type 22; assay: inhibition of lymphoid tyrosine phosphatase LYP – biochemical, pCAP fluorogenic substrate, fluorescence, set 3, SAR follow-up (AID 449727); format: functional
CAAX prenyl protease 2 = CAAX prenyl protease 2 (Saccharomyces cerevisiae S288c, UniProt Q03530); format: biochemical
Tumor necrosis factor = Tumor necrosis factor (Homo sapiens, UniProt P01375); assay: analog potency on TNFa NF-kB signaling – cell-based, revised, SAR follow-up (AID 2337); format: functional
[25] = target: Nucleotide-binding oligomerization domain-containing protein 1 (Homo sapiens, UniProt Q9Y239); assay: blockers of NOD1 pathway activity – revised, SAR follow-up (AID 2333); format: functional
[26] = target: Nucleotide-binding oligomerization domain-containing protein 2 (Homo sapiens, UniProt Q9HC29); assay: PubChem AID 2334; format: functional
HEK293 = assay: cells; conditions: Homo sapiens;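 note: cells exposed to compound for 14 hours overnight before viability readout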

T2 sequence (P51452 whole entry): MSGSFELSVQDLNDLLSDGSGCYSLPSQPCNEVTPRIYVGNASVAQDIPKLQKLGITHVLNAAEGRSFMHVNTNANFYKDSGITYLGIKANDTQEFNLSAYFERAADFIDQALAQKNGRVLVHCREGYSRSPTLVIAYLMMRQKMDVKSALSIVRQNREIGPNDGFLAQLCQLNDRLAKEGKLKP
T5 sequence (Q9Y2R2 whole entry): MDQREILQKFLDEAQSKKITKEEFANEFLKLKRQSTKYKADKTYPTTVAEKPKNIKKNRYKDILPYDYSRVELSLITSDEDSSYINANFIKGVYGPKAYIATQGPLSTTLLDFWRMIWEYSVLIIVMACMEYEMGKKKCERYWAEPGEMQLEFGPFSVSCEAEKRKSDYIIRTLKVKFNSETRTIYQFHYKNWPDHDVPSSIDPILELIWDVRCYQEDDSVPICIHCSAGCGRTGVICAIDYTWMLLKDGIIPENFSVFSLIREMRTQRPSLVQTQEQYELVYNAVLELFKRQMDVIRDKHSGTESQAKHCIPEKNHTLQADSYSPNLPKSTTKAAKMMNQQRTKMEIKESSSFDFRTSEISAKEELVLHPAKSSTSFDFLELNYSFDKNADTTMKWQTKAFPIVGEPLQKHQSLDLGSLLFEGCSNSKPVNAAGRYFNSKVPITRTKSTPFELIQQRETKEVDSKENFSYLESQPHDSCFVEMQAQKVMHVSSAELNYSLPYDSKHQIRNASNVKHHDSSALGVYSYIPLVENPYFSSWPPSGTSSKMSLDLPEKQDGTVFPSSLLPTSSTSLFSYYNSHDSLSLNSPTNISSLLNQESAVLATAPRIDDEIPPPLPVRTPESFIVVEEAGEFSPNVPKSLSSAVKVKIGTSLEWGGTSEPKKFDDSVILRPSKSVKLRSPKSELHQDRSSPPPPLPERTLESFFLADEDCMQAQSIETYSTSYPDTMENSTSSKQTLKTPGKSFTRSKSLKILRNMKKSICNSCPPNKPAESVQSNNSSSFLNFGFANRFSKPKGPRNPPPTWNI
Chain of Coagulation factor XII (P00748 20-372 limits assumed): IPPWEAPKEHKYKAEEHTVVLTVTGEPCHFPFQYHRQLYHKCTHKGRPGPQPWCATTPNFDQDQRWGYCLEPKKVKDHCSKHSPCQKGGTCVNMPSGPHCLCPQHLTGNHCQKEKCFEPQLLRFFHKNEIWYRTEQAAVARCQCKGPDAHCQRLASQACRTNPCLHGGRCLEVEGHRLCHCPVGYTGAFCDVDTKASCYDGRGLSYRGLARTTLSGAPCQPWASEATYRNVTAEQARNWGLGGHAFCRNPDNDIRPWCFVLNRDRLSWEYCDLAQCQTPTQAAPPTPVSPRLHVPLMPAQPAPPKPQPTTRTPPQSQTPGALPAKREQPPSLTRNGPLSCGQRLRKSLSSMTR
Chain of Coagulation factor XII (P00748 373-615 limits assumed): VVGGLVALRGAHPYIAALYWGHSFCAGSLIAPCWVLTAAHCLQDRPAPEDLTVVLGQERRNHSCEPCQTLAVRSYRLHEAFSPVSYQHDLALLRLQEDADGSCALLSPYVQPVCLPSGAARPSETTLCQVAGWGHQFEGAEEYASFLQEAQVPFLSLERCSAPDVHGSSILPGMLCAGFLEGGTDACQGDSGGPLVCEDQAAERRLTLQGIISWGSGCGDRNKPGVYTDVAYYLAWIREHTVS
Chain of CAAX prenyl protease 2 (Q03530 whole entry): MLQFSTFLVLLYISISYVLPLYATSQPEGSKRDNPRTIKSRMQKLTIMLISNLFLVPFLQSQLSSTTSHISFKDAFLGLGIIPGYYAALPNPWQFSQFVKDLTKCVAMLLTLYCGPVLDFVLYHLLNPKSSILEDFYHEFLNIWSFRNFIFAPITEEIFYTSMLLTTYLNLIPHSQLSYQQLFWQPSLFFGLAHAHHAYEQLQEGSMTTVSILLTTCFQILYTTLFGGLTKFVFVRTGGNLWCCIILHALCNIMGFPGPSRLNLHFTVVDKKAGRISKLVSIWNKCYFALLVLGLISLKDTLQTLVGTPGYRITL
Chain of Tumor necrosis factor (P01375 whole entry, the tested form may be a part): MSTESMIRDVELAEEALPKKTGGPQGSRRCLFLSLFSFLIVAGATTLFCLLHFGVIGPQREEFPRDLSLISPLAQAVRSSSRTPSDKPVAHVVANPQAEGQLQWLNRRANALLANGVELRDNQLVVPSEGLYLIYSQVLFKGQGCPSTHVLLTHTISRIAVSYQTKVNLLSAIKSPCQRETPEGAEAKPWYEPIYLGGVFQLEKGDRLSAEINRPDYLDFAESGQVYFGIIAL
Chain of Glyceraldehyde-3-phosphate dehydrogenase (P04406 whole entry): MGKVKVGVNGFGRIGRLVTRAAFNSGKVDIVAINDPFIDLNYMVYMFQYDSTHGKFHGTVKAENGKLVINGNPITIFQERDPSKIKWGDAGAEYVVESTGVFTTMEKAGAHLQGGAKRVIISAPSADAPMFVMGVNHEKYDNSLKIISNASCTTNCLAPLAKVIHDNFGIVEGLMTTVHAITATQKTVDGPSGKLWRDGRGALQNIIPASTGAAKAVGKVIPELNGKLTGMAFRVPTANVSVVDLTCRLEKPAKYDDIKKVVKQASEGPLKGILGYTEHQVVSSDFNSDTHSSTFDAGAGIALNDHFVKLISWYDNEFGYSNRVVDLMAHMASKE
Chain of G-protein coupled receptor 55 (Q9Y2T6 whole entry): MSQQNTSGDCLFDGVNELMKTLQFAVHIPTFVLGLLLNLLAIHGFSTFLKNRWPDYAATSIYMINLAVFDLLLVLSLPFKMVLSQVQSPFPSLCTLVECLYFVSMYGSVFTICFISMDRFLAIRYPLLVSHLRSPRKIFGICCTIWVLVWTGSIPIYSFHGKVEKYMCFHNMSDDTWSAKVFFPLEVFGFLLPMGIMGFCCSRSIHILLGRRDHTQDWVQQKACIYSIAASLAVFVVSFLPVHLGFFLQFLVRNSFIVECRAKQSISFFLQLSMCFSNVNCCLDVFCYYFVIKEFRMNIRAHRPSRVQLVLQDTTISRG
Chain of Nucleotide-binding oligomerization domain-containing protein 2 (Q9HC29 whole entry, the tested form may be a part): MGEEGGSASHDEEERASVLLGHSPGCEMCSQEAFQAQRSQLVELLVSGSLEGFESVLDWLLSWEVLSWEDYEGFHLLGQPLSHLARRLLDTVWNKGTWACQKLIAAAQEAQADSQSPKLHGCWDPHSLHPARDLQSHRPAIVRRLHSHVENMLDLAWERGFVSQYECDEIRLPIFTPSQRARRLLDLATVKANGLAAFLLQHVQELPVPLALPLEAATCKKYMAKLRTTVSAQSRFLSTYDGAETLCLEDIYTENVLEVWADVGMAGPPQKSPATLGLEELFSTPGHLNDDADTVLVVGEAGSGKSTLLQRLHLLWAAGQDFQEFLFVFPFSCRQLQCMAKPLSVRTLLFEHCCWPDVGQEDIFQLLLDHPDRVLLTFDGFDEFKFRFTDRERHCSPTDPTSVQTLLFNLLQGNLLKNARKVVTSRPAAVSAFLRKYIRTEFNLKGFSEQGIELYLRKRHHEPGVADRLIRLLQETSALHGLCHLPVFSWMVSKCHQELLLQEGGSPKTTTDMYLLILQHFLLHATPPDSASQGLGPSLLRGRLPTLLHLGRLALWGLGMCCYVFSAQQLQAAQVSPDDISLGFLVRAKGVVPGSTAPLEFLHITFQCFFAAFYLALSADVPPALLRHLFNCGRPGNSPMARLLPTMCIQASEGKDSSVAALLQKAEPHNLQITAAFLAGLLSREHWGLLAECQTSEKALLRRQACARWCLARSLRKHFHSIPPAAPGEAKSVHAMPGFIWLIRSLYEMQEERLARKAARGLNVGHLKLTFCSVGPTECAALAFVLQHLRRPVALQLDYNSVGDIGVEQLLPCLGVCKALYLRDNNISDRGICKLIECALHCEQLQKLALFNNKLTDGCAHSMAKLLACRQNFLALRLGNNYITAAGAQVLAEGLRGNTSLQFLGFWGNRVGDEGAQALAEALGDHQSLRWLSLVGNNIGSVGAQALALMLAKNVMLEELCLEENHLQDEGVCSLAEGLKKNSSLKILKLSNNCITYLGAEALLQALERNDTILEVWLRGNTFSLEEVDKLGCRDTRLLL
Chain of Tyrosine-protein phosphatase non-receptor type 12 (Q05209 whole entry): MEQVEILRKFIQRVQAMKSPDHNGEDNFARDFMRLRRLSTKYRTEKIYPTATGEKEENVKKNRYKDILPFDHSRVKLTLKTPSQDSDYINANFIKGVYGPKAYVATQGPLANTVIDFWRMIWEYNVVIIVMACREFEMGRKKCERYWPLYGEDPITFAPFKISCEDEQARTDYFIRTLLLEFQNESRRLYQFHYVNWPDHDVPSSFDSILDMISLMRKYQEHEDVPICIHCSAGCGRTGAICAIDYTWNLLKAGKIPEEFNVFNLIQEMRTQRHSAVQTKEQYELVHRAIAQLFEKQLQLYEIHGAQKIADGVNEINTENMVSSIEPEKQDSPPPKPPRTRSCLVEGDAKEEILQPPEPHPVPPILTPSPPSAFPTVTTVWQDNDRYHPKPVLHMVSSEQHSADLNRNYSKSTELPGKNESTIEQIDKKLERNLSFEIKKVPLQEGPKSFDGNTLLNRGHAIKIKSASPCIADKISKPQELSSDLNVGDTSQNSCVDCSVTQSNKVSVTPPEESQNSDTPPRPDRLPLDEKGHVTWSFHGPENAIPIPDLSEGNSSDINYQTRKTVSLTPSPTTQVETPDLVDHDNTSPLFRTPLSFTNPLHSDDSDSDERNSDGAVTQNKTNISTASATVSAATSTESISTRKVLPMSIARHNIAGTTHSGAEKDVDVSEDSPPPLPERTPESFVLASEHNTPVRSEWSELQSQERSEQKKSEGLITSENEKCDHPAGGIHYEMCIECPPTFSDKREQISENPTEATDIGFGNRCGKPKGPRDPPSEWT

OC1c2cc(Br)ccc2N=C2CCCN21 (stereo unspecified)
CC50 (Vero [1]): 71.5 µM (active) | CC50 (Vero [2]): 35.5 µM (active) | CC50 (Vero [3]): > 80 µM (active) | IC50 [4]: 14.5 µM (active) | IC50 (Vero [5]): 25.7 µM (active) | IC50 (Vero [6]): > 25 µM (active) | EC50 [7]: 3.78 µM (active) | EC50 [8]: > 60 µM (not active)

CCCCCC(=O)N/N=C/c1ccc([N+](=O)[O-])o1
EC50 [7]: 0.183 µM (active) | EC50 [8]: > 60 µM (not active) | AC50 [9]: 26.6 µM (active)

O=C(O)c1cc(-c2ccccc2Cl)n[nH]1
IC50 [10]: > 100 µM (not active) | IC50 [11]: > 100 µM (inactive) | IC50 [12]: 0.584 µM (active)

NS(=O)(=O)c1ccc(NC(=S)NC2CC2)cc1
IC50 [13]: 12.5 µM (active) | IC50 [14]: > 99 µM (inactive) | IC50 [15]: 0.588 µM (active) | IC50 [16]: > 100 µM (inactive) | IC50 [17]: > 100 µM (inactive) | IC50 [18]: 27.9 µM (active) | IC50 [19]: 5.38 µM (active) | IC50 [20]: > 99 µM (inactive)

CN(CC(=O)Nc1cccnc1)S(=O)(=O)c1cc(Cl)ccc1Cl
IC50 (Coagulation factor XII): > 50 µM (inactive)

CC(C)C[C@@H](CSc1ccc(Br)cc1)N1CCN(CC(C)C)CCC1=O
EC50 [21]: 15.3 µM (inactive)

CCc1ccc(/N=C2/NC(=O)/C(=C/c3ccc(OCC(=O)O)c(Cl)c3)S2)cc1
IC50 [22]: 7.69 µM (active) | IC50 [23]: 21.7 µM (active) | IC50 [15]: 2.89 µM (active) | IC50 [17]: 2.71 µM (active) | IC50 [24]: 11.2 µM (active) | IC50 [19]: 4.83 µM (active) | IC50 [20]: 65.7 µM (active)

CCn1cc(/C=C(\NC(=O)c2ccccc2F)C(=O)N2CCCC2)c2ccccc21
AC50 (CAAX prenyl protease 2): 3.91 µM (active)

COc1ccc(-c2cc(C(=O)NC3CCCc4c3cnn4-c3ccccc3F)n(C)n2)cc1 (stereo unspecified)
IC50 (Tumor necrosis factor): 1.36 µM (active) | IC50 [25]: 0.99 µM (active) | IC50 [26]: 1.34 µM (active) | IC50 (HEK293): > 20 µM (inactive)
